# Measured values: patent US7589219B2, “2,5-bis-diamine-[1,4]benzoquinonic derivatives, useful for the treatment of alzheimer's disease, method for preparing them and intermediates of said method” (priority 2002, dated 2009)
# “Also recorded” adds a separate entry of the source. Where two headings read alike, the source gives them in different places.
# Experiments:
# [1] = system: anti-NGF transgenic mice (AD11); assay: Immunohistochemistry and neurostereology in anti-NGF transgenic mice (AD11); assay type: in vivo, mouse; conditions: for extracellular deposition of APP: 6 month-old AD11 mice (FIG. 19); for cholinergic deficit in the basal forebrain (number of cholinergic neurons): AD11 mice from 6 months of age for 15 days (FIG. 16); for number of cells accumulating β-amyloid protein in the hippocampus: treatment starting at 6 months of age (FIG. 20)
# [2] = target: recombining human AChE (HuAChE, EC 3.1.1.7) (Homo sapiens, UniProt P22303); assay type: biochemical; conditions: mean of two independent measurements in triplicate
# Sequence of recombining human AChE (HuAChE, EC 3.1.1.7) (P22303 32-614): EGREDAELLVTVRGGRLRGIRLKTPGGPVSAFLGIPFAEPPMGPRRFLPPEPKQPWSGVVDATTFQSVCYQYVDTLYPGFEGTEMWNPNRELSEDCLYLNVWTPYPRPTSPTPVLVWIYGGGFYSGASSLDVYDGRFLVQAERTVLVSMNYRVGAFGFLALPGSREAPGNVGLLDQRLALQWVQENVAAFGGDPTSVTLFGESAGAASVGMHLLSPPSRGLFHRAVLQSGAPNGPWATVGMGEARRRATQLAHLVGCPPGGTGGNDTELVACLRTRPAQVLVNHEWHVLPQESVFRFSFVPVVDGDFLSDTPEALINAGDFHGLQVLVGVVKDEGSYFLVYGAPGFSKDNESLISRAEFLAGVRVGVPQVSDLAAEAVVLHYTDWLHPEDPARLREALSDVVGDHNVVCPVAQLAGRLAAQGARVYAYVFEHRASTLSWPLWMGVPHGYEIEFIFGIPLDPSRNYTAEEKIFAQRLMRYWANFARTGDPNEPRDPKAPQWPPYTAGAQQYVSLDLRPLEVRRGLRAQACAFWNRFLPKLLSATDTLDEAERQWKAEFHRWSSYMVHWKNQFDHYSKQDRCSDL
# [3] = target: AChE (from human erythrocytes, amphiphilic form, EC 3.1.1.7) (Homo sapiens, UniProt P22303); assay: biochemical; conditions: for Selectivity IC50(BuChE)/IC50 (AChE): ratio of the Table I IC50 values
# Sequence of AChE (from human erythrocytes, amphiphilic form, EC 3.1.1.7) (P22303 32-617 isoform P22303-2 limits assumed): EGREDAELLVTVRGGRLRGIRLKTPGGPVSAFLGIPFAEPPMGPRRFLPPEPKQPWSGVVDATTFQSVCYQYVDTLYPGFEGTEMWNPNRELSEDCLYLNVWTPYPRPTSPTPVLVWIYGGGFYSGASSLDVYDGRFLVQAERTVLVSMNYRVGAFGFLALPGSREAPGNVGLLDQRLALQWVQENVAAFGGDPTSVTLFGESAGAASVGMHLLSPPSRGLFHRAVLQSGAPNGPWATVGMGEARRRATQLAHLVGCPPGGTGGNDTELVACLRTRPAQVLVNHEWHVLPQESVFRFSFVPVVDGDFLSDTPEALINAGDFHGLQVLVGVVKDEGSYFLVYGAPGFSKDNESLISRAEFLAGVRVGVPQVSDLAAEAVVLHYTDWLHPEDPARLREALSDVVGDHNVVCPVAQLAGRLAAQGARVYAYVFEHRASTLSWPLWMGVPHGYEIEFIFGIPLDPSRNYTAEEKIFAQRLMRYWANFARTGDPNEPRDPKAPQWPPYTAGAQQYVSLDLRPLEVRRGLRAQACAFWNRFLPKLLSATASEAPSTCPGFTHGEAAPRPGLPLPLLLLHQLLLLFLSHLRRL
# [4] = target: AChE, from human erythrocytes EC 3.1.1.7 (Homo sapiens, UniProt P22303); assay type: biochemical
# Sequence of AChE, from human erythrocytes EC 3.1.1.7 (P22303 32-617 isoform P22303-2 limits assumed): as above
# [5] = system: non transgenic mice treated with scopolamine; assay: Object recognition test, amnesia induced by scopolamine in non transgenic mice; assay type: in vivo, mouse; conditions: per os 15 mg/kg 20 min before scopolamine 0.5 mg/kg s.c. (FIG. 14)
# [6] = target: BuChE (from human serum, EC 3.1.1.8) (Homo sapiens, UniProt P06276); assay: biochemical
# Sequence of BuChE (from human serum, EC 3.1.1.8) (P06276 29-602): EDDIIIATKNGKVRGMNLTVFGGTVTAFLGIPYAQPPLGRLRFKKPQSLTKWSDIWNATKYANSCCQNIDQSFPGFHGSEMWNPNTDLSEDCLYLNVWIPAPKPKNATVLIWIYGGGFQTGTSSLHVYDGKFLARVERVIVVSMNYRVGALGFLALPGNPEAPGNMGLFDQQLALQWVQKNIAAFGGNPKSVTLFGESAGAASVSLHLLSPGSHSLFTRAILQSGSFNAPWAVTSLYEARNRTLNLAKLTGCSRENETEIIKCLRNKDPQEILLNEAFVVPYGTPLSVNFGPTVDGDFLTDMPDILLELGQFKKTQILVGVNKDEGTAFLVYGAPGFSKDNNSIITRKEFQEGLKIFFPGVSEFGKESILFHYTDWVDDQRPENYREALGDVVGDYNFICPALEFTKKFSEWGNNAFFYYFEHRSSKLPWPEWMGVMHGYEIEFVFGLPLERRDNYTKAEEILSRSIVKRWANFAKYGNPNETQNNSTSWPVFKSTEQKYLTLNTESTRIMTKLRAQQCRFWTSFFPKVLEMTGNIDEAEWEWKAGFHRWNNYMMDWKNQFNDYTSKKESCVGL
# [7] = target: aggregation of Aβ (1-40) induced by AChE (recombining human, EC 3.1.1.7) (Homo sapiens, UniProt P22303); assay: biochemical; assay type: biochemical
# Sequence of aggregation of Aβ (1-40) induced by AChE (recombining human, EC 3.1.1.7) (P22303 32-614): as the sequence (P22303 32-614) above
# [8] = Total antioxidant status (Randox kit, modified), capture of oxygen radicals, ABTS colorimetric method; assay type: biochemical; conditions: for % inhibition (antioxidant activity): absorbance 600 nm, 3 min, pH 7.4, 37° C.
# AD11 mice = assay: Object recognition test in AD11 mice; assay type: in vivo, mouse
# [9] = AD11 mice, 15 days starting at 6 months of age (FIG. 18)
# [10] = AChE from human erythrocytes, Ellman's method, Table I, read-out: IC50(AChE)
# [11] = BuChE from human serum, Ellman's method, Table I, read-out: IC50 (BuChE)
# [12] = BuChE from human serum, Example 50 table, mean of two independent measurements in triplicate, read-out: IC50 (BuChE)
# [13] = AD11 mice aged 15 months, per os 7 mg/kg/day for 1 month, versus placebo (FIG. 11)
# [14] = AD11 mice, daily from 1.5 months until 2 months of age, per os or intraperitoneal, comparison of AChE inhibitors (FIG. 15)
smiles,measurement,setting,value
"COc1ccccc1CN(C)CCCCCC(=O)N(C)CCCCCCCCN(C)C(=O)CCCCCN(C)Cc1ccccc1OC [Caproctamine, reference compound]",extracellular deposition of APP,[1],ineffective
same,cholinergic deficit in the basal forebrain (number of cholinergic neurons),[1],had no effect on the number of cholinergic neurons
same,number of neurons labelled with antibodies against phospho-tau (entorhinal cortex),[1]; [9],ineffective
same,number of cells accumulating β-amyloid protein in the hippocampus,[1]; AD11 mice,ineffective
"CCN(CCCCCCNC1=CC(=O)C(NCCCCCCN(CC)Cc2ccccc2OC)=CC1=O)Cc1ccccc1OC [Compound XVI, 2,5-Bis-{6-[ethyl-(2-methoxy-benzyl)-amino]-hexylamino}-[1,4]benzoquinone]",IC50,[2],1.55 ± 0.11 nM
same,IC50,[3]; [10],2.39 ± 0.14 nM
same,Selectivity IC50(BuChE)/IC50 (AChE),[3],602
same,type of inhibition,[4]; Lineweaver-Burk analysis (FIG. 1),competitive inhibitor of a mixed type
same,Ki,"[4]; acetylthiocholine 111-550 μM, Lineweaver-Burk, intercept of the gradient plot",2.6 nM
same,"amnesia induced by scopolamine, object recognition test",[5],did not show any signs of amnesia
same,IC50,[6]; [11],1440 ± 100 nM
same,IC50,[6]; [12],1440 ± 100 nM
same,IC50,"[6]; approximate, corresponds to the Table I IC50, read-out: pIC50(BChE) (converted)",~1450 nM
same,extracellular deposition of APP,[1],reduced the extracellular deposition of APP
same,number of cholinergic neurons in the basal forebrain,"[1]; AD11 mice aged 15 months, per os 7 mg/kg/day for 1 month (FIG. 9)",improvement in the number of cholinergic neurons
same,intracellular accumulation of hyperphosphorylated tau,"[1]; AD11 mice aged 15 months, per os 7 mg/kg/day for 1 month, versus placebo (FIG. 10)",decreased
same,number of cells associated with plaques,[1]; [13],lower than that in placebo-treated mice
same,number of β-amyloid plaques,[1]; [13],decrease in the number of β-amyloid plaques
same,cholinergic deficit in the basal forebrain (number of cholinergic neurons),[1],able to rescue the cholinergic deficit
same,APP deposition in the cerebral vessels,"[1]; AD11 mice of 2 months, 7 mg/kg intraperitoneal daily for 15 days (FIG. 7)",able to reduce markedly the cerebrovascular deposition of APP
same,tau hyperphosphorylation in the cortex,"[1]; AD11 mice of 2 months, 7 mg/kg intraperitoneal daily for 15 days (FIG. 8)",partly prevented
same,cholinergic neurons in the basal nucleus of Meynert,"[1]; AD11 mice, 7 mg/kg intraperitoneal daily for 15 days from age 1.5 to 2 months (FIG. 6)",efficacious in preventing the loss of cholinergic neurons
same,ChAT positive cholinergic neurons in the basal forebrain,"[1]; AD11 mice, 7 mg/kg intraperitoneal daily for 15 days from age 1.5 to 2 months (FIGS. 4, 5)",able to prevent the cholinergic deficit in the basal forebrain
same,number of neurons labelled with antibodies against phospho-tau (entorhinal cortex),"[1]; AD11 mice, 15 days starting at 1.5 months of age (FIG. 17)",reduced the number of neurons labelled with antibodies against phospho-tau
same,number of neurons labelled with antibodies against phospho-tau (entorhinal cortex),[1]; [9],reduced the number of neurons labelled with antibodies against phospho-tau
same,number of cholinergic neurons in the basal forebrain,[1]; [14],prevented the decrease of the number of cholinergic neurons
same,number of cells accumulating β-amyloid protein in the hippocampus,[1]; AD11 mice,able to reduce the number of cells accumulating β-amyloid protein
same,IC50,"[7]; read-out: concentration able to reduce the signal of fluorescence by 50% (IC50, AChE-induced Aβ aggregation), Aβ 230 μM, AChE 2.3 μM, thioflavine T fluorescence",28.3 ± 0.3 µM
same,% inhibition (antioxidant activity),"[8]; concentration 170 μM, with human serum albumin 25 μM",44.1 ± 3.7%
same,"antioxidant power, times lower than Trolox",[8]; oxidated quinonic form tested,about 6 times
same,"behavioural deficit, object recognition test (discrimination index)","AD11 mice; AD11 mice at 6 months, 15 mg/kg/day per os for 15 days (FIGS. 12, 21), 15 mg/kg/day",improvement of the deficit; also recorded: marked amelioration of the behavioural deficit
same,"behavioural deficit, object recognition test (discrimination index)","AD11 mice; AD11 mice at 12 months, 15 mg/kg/day per os for 15 days (FIG. 13)",improvement of the deficit
"CCN(CCCCCCCNC1=CC(=O)C(NCCCCCCCN(CC)Cc2ccccc2OC)=CC1=O)Cc1ccccc1OC [IL, 2,5-bis-{7-[ethyl-(2-methoxy-benzyl)-amino]-heptylamino}-[1,4]benzoquinone]",IC50,[2],7.79 ± 0.37 nM
same,IC50,[6]; [12],1250 ± 250 nM
"COc1ccccc1CNCCCCCCNC1=CC(=O)C(NCCCCCCNCc2ccccc2OC)=CC1=O [LI, 2,5-bis-[6-(2-methoxy-benzylamino)-hexylamino]-[1,4]-benzoquinone]",IC50,[2],123 ± 20 nM
same,IC50,[6]; [12],3230 ± 150 nM
"COc1ccccc1CN(C)CCCCCCNC1=CC(=O)C(NCCCCCCN(C)Cc2ccccc2OC)=CC1=O [LIV, 2,5-bis-{6-[(2-methoxy-benzyl)-methylamino]-hexylamino}-[1,4]-benzoquinone]",IC50,[2],77.8 ± 4.3 nM
same,IC50,[6]; [12],5110 ± 410 nM
"CCN(CCCCCCNC1=C(C)C(=O)C(NCCCCCCN(CC)Cc2ccccc2OC)=C(C)C1=O)Cc1ccccc1OC [LV, 2,5-bis-{6-[ethyl-(2-methoxy-benzyl)-amino]-hexylamino}-3,6-dimethyl-[1,4]-benzoquinone]",IC50,[2],9.5 ± 0.23 nM
same,IC50,[6]; [12],462 ± 2 nM
"Nc1c2c(nc3ccccc13)CCCC2 [Tacrine, reference compound]",number of cholinergic neurons in the basal forebrain,[1]; [14],aggravated the cholinergic deficit
"Cc1c(C)c2c(c(C)c1O)CCC(C)(C(=O)O)O2 (centres unmarked) [Trolox, 6-hydroxy-2,5,7,8-tetramethylchroman-2-carboxylic acid, reference compound]",% inhibition (antioxidant activity),[8]; concentration 27 μM,57.6 ± 0.9%
"CCN(CCCNC1=CC(=O)C(NCCCN(CC)Cc2ccccc2OC)=CC1=O)Cc1ccccc1OC [XII, 2,5-Bis-{3-[ethyl-(2-methoxy-benzyl)-amino]-propylamino}-[1,4]benzoquinone]",IC50,[2],2.25 ± 0.21 nM
same,IC50,[3]; [10],3.19 ± 0.15 nM
same,IC50,"[3]; approximate, corresponds to the Table I IC50, read-out: pIC50(AChE) (converted)",~3.24 nM
same,Selectivity IC50(BuChE)/IC50 (AChE),[3],1407
same,IC50,[6]; [11],4490 ± 340 nM
same,inhibition at 100 µM,[7]; concentration of 100 μM,~90%
"CCN(CCCCCCNC1=CC(=O)C(NCCCCCCN(CC)Cc2ccco2)=CC1=O)Cc1ccco1 [XLI, 2,5-bis-[6-(ethyl-furan-2-ilmethyl-amino)-hexylamino]-[1,4]benzoquinone]",IC50,[2],144 ± 3 nM
same,IC50,[6]; [12],3510 ± 180 nM
"CCN(CCNC1=CC(=O)C(NCCN(CC)Cc2ccccc2OC)=CC1=O)Cc1ccccc1OC [XLV, 2,5-bis-{2-[ethyl-(2-methoxy-benzyl)-amino]-ethylamino}-[1,4]benzoquinone]",IC50,[2],61.5 ± 1.3 nM
same,IC50,[6]; [12],16800 ± 1100 nM
"CCN(CCCCCCNC1=CC(=O)C(NCCCCCCN(CC)Cc2ccccc2)=CC1=O)Cc1ccccc1 [XVII, 2,5-Bis-[6-(benzyl-ethyl-amino)-hexylamino]-[1,4]benzoquinone]",IC50,[2],73.3 ± 3.2 nM
same,IC50,[6]; [12],645 ± 33 nM
"CCN(CCCCCCNC1=CC(=O)C(NCCCCCCN(CC)Cc2ccccc2Cl)=CC1=O)Cc1ccccc1Cl [XVIII, 2,5-Bis-{6-[ethyl-(2-chloro-benzyl)-amino]-hexylamino}-[1,4]benzoquinone]",IC50,[2],593 ± 51 nM
same,IC50,[6]; [12],45100 ± 1000 nM
"CCN(CCCCCCNC1=CC(=O)C(NCCCCCCN(CC)Cc2ccccc2[N+](=O)[O-])=CC1=O)Cc1ccccc1[N+](=O)[O-] [XXIX, 2,5-bis-{6-[ethyl-(2-nitro-benzyl)-amino]-hexylamino}-[1,4]benzoquinone]",IC50,[2],2310 ± 130 nM
same,IC50,[6],36500 ± 8800 nM
"CCN(CCCCCCNC1=CC(=O)C(NCCCCCCN(CC)Cc2cccc(OC)c2)=CC1=O)Cc1cccc(OC)c1 [XXXIII, 2,5-bis-{6-[ethyl-(3-methoxy-benzyl)-amino]-hexylamino}-[1,4]benzoquinone]",IC50,[2],13.8 ± 1.7 nM
same,IC50,[6]; [12],2170 ± 70 nM
"CCN(CCCCCCNC1=CC(=O)C(NCCCCCCN(CC)Cc2ccc(OC)cc2)=CC1=O)Cc1ccc(OC)cc1 [XXXVII, 2,5-bis-{6-[ethyl-(4-methoxy-benzyl)-amino]-hexylamino}-[1,4]benzoquinone]",IC50,[2],51.1 ± 1 nM
same,IC50,[6]; [12],2420 ± 940 nM
